Laboratory results as given in publication PMC10887108, “Novel Brain-Penetrant, Small-Molecule Tubulin Destabilizers for the Treatment of Glioblastoma” (Biomedicines, 2024).

Columns and labels:
MDR1 (P-gp) = experiment: MDR1-MDCK cellular permeability; type: in vitro ADME, canine; details: dog
Method: Cellular permeability was tested using the MDR1-MDCK (multidrug-resistant-1, Madin–Darby canine kidney) cell line. Donor solution was added to a 96-well plate (2 μL, 2 mM compound; 6 μL DMSO in 1992 μL of Hanks’ balanced salt solution [HBSS] buffer) and shaken at 1000 rpm for 10 min (final 0.4% DMSO). Transepithelial electrical resistance (TEER) values were used as a quality control check for monolayer integrity. At 3–5 days post-seeding, each MDCK II cell monolayer was tested to ensure the TEER value was ≥ 83 Ω⋅cm^2. The compound donor working solution was centrifuged (4000 rpm for 5 min) to remove any precipitated compound prior to loading donor chambers. Apical and basolateral plates were warmed at 37 °C for about 5 min prior to the initiation of transport (37 °C, 90 min).
Luciferin marker Lucifer Yellow (150 μL, 50 μM Lucifer Yellow in HBSS, pH 7.4) was added to the apical compartment, and transfer buffer (600 μL) was added to the receiver plate (basolateral compartment) and incubated at 37 °C for 60 min. Apical Lucifer Yellow concentrations for LYT0 and LYT60 were measured by a fluorometer (EX 485/EM 535 nm). Donor and receiver samples were analyzed by LC-MS. Metoprolol, enalapril, and quinidine were used as positive controls. The efflux ratio was calculated as the ratio of apparent permeability (basal-to-apical) and apparent permeability (apical-to-basal).

[1] = Metabolite profiling in cryopreserved hepatocytes; type: in vitro ADME; details: mouse, rat, dog, monkey, and human hepatocytes, 120 min
Method: Metabolite profiling was carried out by WuXi DMPK (Nanjing, China). RGN3067 (10 μM) was profiled in CD-1 mice (BioIVT, Westbury, NY, USA), SD rats (BioIVT), beagle dogs (BioIVT), cynomolgus monkeys (Research Institute for Liver Diseases [RILD], Shanghai, China), and human cryopreserved hepatocytes (BioIVT). The positive control was 7-ethoxycoumarin (30 μM). Compounds were added to hepatocytes (400 µL, 1 × 10^6/mL), and reactions were carried out at 37 °C in 5% CO2/saturated humidity for 120 min. Reactions were stopped by the addition of ice-cold ACN (400 μL). Samples were shaken at 300 rpm for 10 min, then centrifuged at 13,000× g for 10 min. Supernatants were evaporated under a stream of N2. Residue from the RGN3067 incubation was reconstituted with ACN: H2O (200 μL, v:v, 3:7), followed by centrifugation at 14,000 rpm for 10 min, and the supernatant was used for qualitative and semi-quantitative analysis using LC-UV/HRMS. A Shimadzu UFLC-20A with autosampler was used for chromatographic separation. Detection and structure were determined using a Thermo Q-Extractive mass spectrometer in full MS/MS^2 scan mode and Xcalibur Data Acquisition and Interpretation Software v4.2.

[2] = test system: GBM12, GBM15, GBM39 and GBM43 patient-derived GB cell lines; experiment: CellTiter-Glo viability assay, four patient-derived GB cell lines; type: cell-based; details: Homo sapiens, 144 h, read-out: IC50 cell viability, range over four patient-derived GB cell lines
Method: Short-term cultures of patient-derived cells GBM12, GBM15, GBM39 and GBM43 (used with permission Mayo Foundation) were seeded (1000 cells/well) in solid white Corning 384-well plates (Corning, NY, USA) and cultured overnight. Cells were treated with DMSO or RGN3067 in a 13-point dose response with a 1:3 serial dilution from an initial concentration of 100 μM. After 144 h, cell viability was measured using CellTiter-Glo (Promega, Madison, WI, USA). Data were normalized to DMSO control, and absolute IC50 values were calculated using GraphPad Prism 10 (San Diego, CA, USA).

[3] = target: T1, Porcine tubulin (colchicine binding site) (Sus scrofa, UniProt P02554); experiment: Colchicine competitive binding assay (fluorescence); details: compound 50 µM, colchicine 10 μM, tubulin 20 μM
T1 construct: purchased Cytoskeleton, Inc. T240; host or cells: brain tissue (purified)

[4] = test system: colchicine binding pocket of β-tubulin in MCF-7 cells; experiment: EBI competition colchicine-binding site cellular assay; type: cell-based, human; details: MCF-7, compound 50 µM
Method: (C) EBI competition assay in MCF-7 breast cancer cells. […] Total proteins were lysed and subjected to Western blot analysis for β-tubulin. […] GAPDH was employed as the loading control. (D) Quantification of the Western blot in (C). […] Data are plotted as mean ± SD from at least three independent experiments. Analysis between groups in (B) was performed using a one-way ANOVA with Tukey’s multiple comparison test.

[5] = Brain pharmacokinetics after oral dosing; type: in vivo; details: 100 mg/kg oral, CD-1 mice, 1, 4 and 8 h
Method: Brain pharmacokinetic studies were carried out by DMPK at WuXi AppTec, Inc. (Cranbury, NJ, USA). The brain penetrance of RGN3067 was evaluated in three male CD-1 mice. RGN3067 was formulated as a 10 mg/mL solution (20% DMSO, 80% PEG400: PVP 95:5) and administered by oral gavage at a dose of 100 mg/kg. Plasma and brain samples were collected at 1, 4, and 8 h. Samples were analyzed by LC-MS/MS. A calibration curve was established using Waters ACQUITY UPLC BEH C18 column and formic acid in water and formic acid in acetonitrile as mobile phase. Tolbutamide and labetalol were used as internal standards for LC-MS/MS analysis. Compound was detected using electrospray ionization (ESI) positive detection. Pharmacokinetic parameters were calculated using the PO-noncompartmental linear model in Phoenix WinNonlin software v8.3 (Certara, Princeton, NJ, USA).

[6] = test system: GBM12 patient-derived xenograft; experiment: Subcutaneous GBM12 PDX efficacy model; type: in vivo, athymic nude female mice; details: 100 mg/kg oral BID, 5 days on/2 days off, four cycles
Method: Animal protocols were approved by the Animal Care and Use Committee (ACUC) of the institutes and CRO labs. All studies were performed in compliance with the guidelines. GBM12 cells (5 × 10^6) were injected subcutaneously into athymic nude female mice aged 4–6 weeks. Subcutaneous (SC) tumor size was measured using an external caliper. The greatest longitudinal diameter (length) and the greatest transverse diameter (width) were determined while mice were scruffed and conscious. Tumor volume was calculated by the modified ellipsoidal formula: V = ½ (Length × Width^2). RGN3067 solution was prepared for each mouse. RGN3067 (9.91 mg) was dissolved in DMSO (17 µL) by vortexing for 30–60 s. Approximately 69 μL of PEG400: PVP (95:5, Sigma-Aldrich; St. Louis, MO, USA) solution was added and vortexed.
After tumors reached 100–150 mm^3, mice were dosed with RGN3067 solution (43 µL, 100 mg/kg) or vehicle control twice daily by oral gavage (total dose was 200 mg/kg). Mice were dosed using cycles of 5 days on/2 days off, for a total of four cycles. Mice were euthanized once the tumor reached 2000 mm^3.

**Q.** What does the source list for CO[C@H]1C[C@@H](C(=O)NC(=O)Nc2ccc(Oc3ccc(Cl)cn3)c(C)c2)C1 [RGN3067]?
**A.** efflux ratio at 90 min, 2 µM (MDR1 (P-gp); Papp basal-to-apical / apical-to-basal): 0.61; Papp at 90 min, 2 µM (MDR1 (P-gp); read-out: apparent permeability coefficient): 22.7 ×10⁻⁶ cm/s; number of metabolites detected and identified [1]: 10; IC50 [2]: 148 to 616 nM; reduction of colchicine–tubulin fluorescence relative to control [3]: 24%; formation of the EBI–β-tubulin adduct [4]: reduces the formation of the EBI–β-tubulin adduct; distribution in plasma and brain [5]: equal distribution in plasma and brain at all time points; behavior, appearance and weight loss [6]: No changes in behavior or appearance (hair and skin) or statistically significant weight loss was observed; inhibition of tumor growth (tumor volume) ([6]; from day 14 to end of study): statistically significant inhibition of tumor growth
